The results in this text go back to US6787141B1, “Peptide having for fibrinogen fragment E activity, analogs, antibodies and uses thereof” (The University Court of The University of Aberdeen, priority 1999, dated 2004).

Experiment [1] relates to chick chorioallantoic membrane (CAM). In words: chick chorioallantoic membrane (CAM) cell proliferation assay (DNA synthesis, tritiated thymidine). The format is in vivo. As to the method:
Cell proliferation was measured using the chick chorioallantoic membrane (CAM) model as described previously (4, 29, 30).The assay used is based on quantitative measurement of DNA synthesis in the CAM after exposure to control and test substances 18 h after application in liquid form to the whole “dropped” area of each CAM (4, 29). This assay is a measure of changes in CAM vascularity (30).
The rabbit and rat antisera were mixed with active fibrin degradation products. These were applied to the chick CAM with a positive control (fibrin degradation products) and a negative control (the antibody alone). The CAM was processed for incorporation of tritiated thymidine.
The rabbit antisera were then tested for ability to block the stimulatory activity of human FDP on the chick CAM model. The assay used was based on quantitative measurement of DNA synthesis in the CAM after exposure to control and test substances 18 h after application in liquid form to the whole “dropped” area of each CAM (4,29). This assay is a measure of changes in CAM vascularity (30). Anti phage antisera, raised by relatively short term immunisation of rabbits, were used at a 1/2 dilution and admixed with FDP used at a concentration of approximately 1.95 mg/ml diluted before use to 1/10. Controls included buffer only and antiserum only groups of CAMs. After filter sterilisation, 0.3 ml was added onto each CAM dropped surface.

Experiment [2] relates to Chick fibroblasts, Cos7, mouse 3T3 and human embryonic lung cells (HEL). Briefly: cell binding assays. It is filed as cell-based. The settings on record: each of the cell types; 6 hours at 37° C. As to the method:
Chick fibroblasts, Cos7, mouse 3T3 and human embryonic lung cells (HEL) were cultured in a 25 cm^2 flask (Nunc) until confluent (approximately 3×10^6 cells). The cells were trypsinised and resuspended at concentration of 1.3×10^5 cells/ml. 200 μl of this cell suspension was added to each well of a 96 well culture plate (Nunc). The cells were incubated overnight at 37° C. to allow adherence and recovery. The cells were then divided into three sections, digoxygenin controls, PBS controls and digoxygenin labelled fragment E tests. Increasing concentrations of digoxygenin and digoxygenin labelled fibrin fragment E were applied from 0-30 mg per well. The plates were incubated for 6 hours at 37° C. under culture conditions.
The plates were emptied of media and washed three times with PBS. The cells were then incubated for 2 hours with sheep antidigoxygenin alkaline phosphatase and developed with p-nitrophenyl phosphate in bicarbonate buffer pH 9.8. The plates were read on a Titertek Multiscan plate reader at 405 nm.

The test system of the next experiment is Chick fibroblasts. Briefly: cell immunohistochemistry. The conditions noted are these: 2 hours exposure. The format is cell-based. As to the method: Chick fibroblasts were cultured in a 25 cm^2 flask (Nunc) until confluent (approximately 3×10^6 cells). The cells were washed in PBS and then trypsinised and diluted to 3×10^5 cells per ml in Dulbecco modified medium with 10% foetal calf serum. […] of the cells suspension was plated into each well of a Nunc culture well slide. The cells were incubated overnight to allow adhesion and recovery from the passaging. Digoxygenin labelled fibrin fragment E was added to a final concentration of 8 mg per ml. Control wells contained unconjugated digoxygenin and PBS.
The cells were rinsed after 2 hours with PBS then washed 3 times in TBS followed by one wash in distilled water. The cells were then incubated for 2 hours with sheep anti-digoxygenin alkaline phosphatase. The slides were then washed three times in TBS and developed with NBT and BCIP in bicarbonate buffer pH 9.8. The slides were air dried and then mounted for observation of membrane staining under the microscope.

With CRAHSFGSPRPLPVV [WTM110], in experiment [1] (FIG. 4 legend, concentration not given), the “inhibition of the stimulatory effect of FDP” value is “inhibits”. Also, the entries for the “inhibition of FDP induced cell proliferation” value in experiment [1] (peptide at 7.5 μg/ml) and in experiment [1] (peptide at 15 μg/ml) were “little inhibition” and “inhibition was demonstrated with cell proliferation reduced to control level”, respectively.

B1: fibrin fragment E: fibrin fragment E, labelled with digoxygenin ester for detection (protein)
chain 1: GPRVVERHQSACKDSDWPFCSDEDWNYKCPSGCRMKGLIDEVNQDFTNRINKLKNSLFEYQK
chain 2: GHRPLDKKREEAPSLRPAPPPISGGGYRARPAKAAATQKKVERKAPDAGGCLHADPDLGVLCPTGCQLQEALLQQERPIRNSVDELNNNVEAVSQTSSSSFQYMYLLK
chain 3: YVATRDNCCILDERFGSYCPTTCGIADFLSTYQTKVDKDLQSLEDILHQVENKTSEVKQLIK
Consider B1, for which, in experiment [2], the “binding to cells (absorbance at 405 nm compared to control preparations)” value was “high absorbance”. Also, the “binding to cells (membrane staining)” value in the experiment with Chick fibroblasts is “shown to bind”.
